Assay results from EP4610269A1, “UROKINASE PLASMINOGEN ACTIVATOR SURFACE RECEPTOR (UPAR) LIGANDS FOR DIAGNOSTIC OR THERAPEUTIC USE” (3B Pharmaceuticals GmbH, priority 2024, dated 2025).
Where two headings read alike, the source gives them in different places. *1 amine or outer side, *2 acyl side, *3 side chain or, on linkers, in order; H or OH if unused. Where a SMILES comes first, the peptide text is derived from it. Bridges are numbered along the chain shown (N, C = ends). [ ]: non-standard residue; d: D form. The star is where a group is joined. DOTA = O=C(O)CN1CCN(CC(=O)O)CCN(CC(=O)*)CCN(CC(=O)O)CC1; Pro(trans-4-F) = O=C(O)[C@@H]1C[C@@H](F)CN1; Pro(cis-4-F) = O=C(O)[C@@H]1C[C@H](F)CN1; Dopa = N[C@@H](Cc1ccc(O)c(O)c1)C(=O)O; Hyp = O=C(O)[C@@H]1C[C@@H](O)CN1; LaDOTA = La(III) DOTA conjugate; Pentanoyl(4-Me) = CC(C)CCC(=O)*; Cit = NC(=O)NCCC[C@H](N)C(=O)O; Cysteamide = C(CS[*:3])N[*:1]; Butoxycarbonyl = CCCCOC(=O)*; Phg = N[C@H](C(=O)O)c1ccccc1; Nle = CCCC[C@H](N)C(=O)O; Dab = NCC[C@H](N)C(=O)O; Nva = CCC[C@H](N)C(=O)O; Pentanoyl = CCCCC(=O)*; Aib = CC(C)(N)C(=O)O

Legend:
[1] = target: T1, human uPAR (uPAR-Fc) (Homo sapiens, UniProt Q03405); assay: Surface plasmon resonance (SPR) assay, single cycle kinetics; format: binding; conditions: pKD category for uPAR SPR activity assay, uPAR-Fc on Protein A-Chip, 25°C; for Kd: read-out: pKD CAT (converted)
T1 construct: comprising amino acids Leu23-Arg303 according to UniProt entry Q03405.1; purchased R&D Systems 10378-UK-100
Description: Surface plasmon resonance (SPR) is an optical technique used to measure molecular interactions in real time. SPR occur when plane-polarized light hits a metal film under total internal reflection conditions. SPR signal is directly dependent on the refractive index of the medium on the sensor chip. In an SPR experiment, one molecule (i.e. uPAR) is immobilized on a sensor chip and binding to a second molecule (i.e. test compounds) is measured under flow. The binding of the compound on the surface changes the refractive index. In responses the reflection angle changes as compounds bind and dissociate on the immobilized protein on the surface. This response is measured in resonance units (RU). The RUs are proportional to the number of molecules bound to the surface. […] Kinetic binding constants and equilibrium binding constants can be derived from the sensorgrams.
Surface plasmon resonance (SPR) studies were performed using a Biacore™ T200 or S200 SPR system (Cytiva, formerly GE Life Sciences) to assess binding of compounds to recombinant uPAR protein.
In this example recombinant protein comprising the extracellular domains of human uPAR (uPAR-Fc, R&D Systems, CAT 10378-UK-100, comprising amino acids Leu23-Arg303 according to UniProt entry Q03405.1 and Fc region of human IgG1 at the C-terminus) was immobilized on a Protein A-Chip (Cytiva, CAT 29127555) according to the supplier's instructions. uPAR-Fc was diluted in Running Buffer (10 mM HEPES, 150 mM NaCl, 50 µM EDTA, 0.1% DMSO, 0.05% Tween-20, pH 7.4) to a final concentration of 100 nM and then flushed over the Protein A-Chip to immobilized ~2000 RUs.
Stock solutions of test compounds were prepared by dissolving each compound in DMSO. DMSO stock solution were diluted 1: 1000 in Running Buffer without DMSO. Further sequential dilutions were made with Running Buffer containing 0.1% DMSO. SPR binding analyses were performed in Single Cycle Kinetic (SCK) mode at 25°C. Flow cell without immobilized uPAR-Fc served as reference flow cell. The chip was regenerated with 10 mM Glycine, pH 1,5 to remove the uPAR-Fc from the chip surface after each SCK run. After every three SCK measurements, a blank run with Running Buffer instead of test compound was included to correct for baseline drifts (double reference substraction method). Table 11: SPR protocol steps for SCK with uPAR-Fc immobilized on a Protein A-Chip.
For each test compound, SPR raw data sensorgrams were recorded using the Biacore™ T200 or S200 control software. Sensorgrams were processed and analyzed with the Biacore™ Insight Evaluation software. […] The reference subtracted sensorgram for each test compound was further corrected for baseline drift by subtracting the sensorgram of a reference subtracted blank run (Running Buffer only). The dissociation constant (KD) was calculated from the double reference subtracted sensorgrams using the 1:1 Langmuir binding model. The pKD value (negative decadic logarithm of dissociation constant) was calculated using Microsoft Excel.

[2] = target: T2, uPAR-expressing HEC-265 human endometrial adenocarcinoma cells (Homo sapiens, UniProt Q03405); assay: Competitive FACS binding assay; conditions: pIC50 category of FACS binding
T2 construct: Cell surface uPAR-expressing HEC-265 human endometrial adenocarcinoma cells; host or cells: HEC-265
Description: In order to determine binding of compounds according to the present invention to uPAR-expressing cells, a competitive FACS binding assay was established.
Cell surface uPAR-expressing HEC-265 human endometrial adenocarcinoma cells (Japanese Collection of Research Bioresources, #JCRB1142) were cultured in MEM Eagle with stable glutamine (Pan Biotech, #P04-09500) including 15% fetal bovine serum (Pan Biotech, #P30-3306) and 100 U/ml penicillin and 100 µg/mL streptomycin (Pan Biotech, #P06-07100). Cells were detached with Cell Dissociation Buffer (Thermo Scientific, #13151014) and washed in FACS buffer (PBS (Pan Biotech, #P04-36500) including 1% BSA (SeraCare, #AP-4510-80). Cells were diluted in FACS buffer to a final concentration of 500.000 cells per ml and 200 µl of the cell suspension are transferred to a u-shaped non-binding 96-well plate (Greiner Bio-One, #650901).
For IC50 determination, cells were incubated with 10 nM Bio--Ttds--Ttds--Ttds--Ttds-D-Cha-FsrYLWS-NH2) in the presence of increasing concentrations of non-labeled test compounds at 4°C for 1 hour. Cells were washed twice in FACS buffer. An additional incubation step with 1 µg/mL APC-Streptavidin (Miltenyi; #130-106-791) in 50 µL FACS buffer for 30 minutes on ice was performed followed by two washes with FACS buffer. Cells were resuspended in 200 µl FACS buffer and analyzed in an Attune NxT flow cytometer. Median fluorescence intensities (APC channel) were calculated by Attune NxT software and plotted against peptide concentrations. Four parameter logistic (4PL) curve fitting and pIC50 calculations were performed using ActivityBase software.

T1 sequence (Q03405 23-303): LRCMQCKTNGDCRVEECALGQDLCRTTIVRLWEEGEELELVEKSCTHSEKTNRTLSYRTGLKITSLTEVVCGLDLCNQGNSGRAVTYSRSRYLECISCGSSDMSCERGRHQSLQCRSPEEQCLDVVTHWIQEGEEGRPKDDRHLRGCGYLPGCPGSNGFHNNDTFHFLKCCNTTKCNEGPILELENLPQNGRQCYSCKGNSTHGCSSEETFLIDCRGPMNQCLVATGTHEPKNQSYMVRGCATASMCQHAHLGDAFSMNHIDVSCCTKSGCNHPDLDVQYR
T2 sequence (Q03405 23-335): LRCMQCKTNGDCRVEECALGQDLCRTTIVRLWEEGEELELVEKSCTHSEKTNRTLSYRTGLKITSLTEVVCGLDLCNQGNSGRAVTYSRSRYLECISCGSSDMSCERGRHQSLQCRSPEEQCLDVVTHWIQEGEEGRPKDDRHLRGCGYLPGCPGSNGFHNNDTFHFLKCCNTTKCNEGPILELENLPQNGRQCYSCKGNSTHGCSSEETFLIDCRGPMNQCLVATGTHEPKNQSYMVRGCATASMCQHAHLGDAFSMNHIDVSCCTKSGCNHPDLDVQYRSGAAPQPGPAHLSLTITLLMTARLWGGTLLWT

Row | Kd [1] [nM] | IC50 [2] [nM] | pKD CAT [1] | pIC50 CAT [2] | Kd ([1]; single cycle kinetics) [nM] | Compound
1 | > 100 | ≥ 126 | – | – | – | CC(C)CCC(=O)N[C@H]1CSSC[C@@H](C(N)=O)NC(=O)[C@H](CC(C)C)NC(=O)[C@H](C)NC(=O)[C@@H](C)NC(=O)[C@@H]2CCCN2C(=O)[C@H](Cc2ccccc2)NC(=O)[C@H](Cc2ccc(O)cc2)NC(=O)[C@H](CCC(N)=O)NC(=O)[C@H](CCCNC(N)=O)NC1=O [UPAR-164, iHex-[Cys-Cit-Gln-Tyr-Phe-Pro-ala-Ala-Leu-Cys]-NH2] ({Pentanoyl(4-Me)}-C[Cit]QYFP[dA]ALC-NH2; disulfide 1-10)
2 | < 1.58 | ≤ 10 | – | – | – | CC[C@H](C)[C@@H]1NC(=O)[C@@H]2C[C@@H](F)CN2C(=O)[C@@H]2CCCN2C(=O)[C@H](Cc2ccccc2)NC(=O)[C@H](Cc2ccc(O)cc2)NC(=O)[C@H](CCC(N)=O)NC(=O)[C@H](CCCNC(N)=O)NC(=O)[C@@H](NC(=O)CCC(C)C)CSSC[C@@H](C(N)=O)NC(=O)[C@H](CC(C)C)NC1=O [UPAR-220, iHex-[Cys-Cit-Gln-Tyr-Phe-Pro-4Tfp-Ile-Leu-Cys]-NH2] ({Pentanoyl(4-Me)}-C[Cit]QYFP[Pro(trans-4-F)]ILC-NH2; disulfide 1-10)
3 | < 1.58 | ≤ 10 | – | – | – | CCCC[C@@H]1NC(=O)[C@H](CCCNC(=N)N)NC(=O)[C@@H](NC(=O)[C@@H](CC(C)C)NC(=O)[C@H](CC(=O)O)NC(C)=O)CSSC[C@@H](C(N)=O)NC(=O)[C@H](CC(C)C)NC(=O)[C@H]([C@@H](C)CC)NC(=O)[C@H](C)NC(=O)[C@@H]2CCCN2C(=O)[C@H](Cc2ccccc2)NC(=O)[C@H](Cc2ccc(O)cc2)NC1=O [UPAR-244, Ac-Asp-leu-[Cys-Arg-Nle-Tyr-Phe-Pro-Ala-Ile-Leu-Cys]-NH2] (Ac-D[dL]CR[Nle]YFPAILC-NH2; disulfide 3-12)
4 | 10 to 100 | ≥ 126 | – | – | – | CCCCC(=O)N[C@H]1CSSC[C@@H](C(N)=O)NC(=O)[C@H](CCC)NC(=O)[C@H]([C@@H](C)CC)NC(=O)[C@@H]2C[C@@H](O)CN2C(=O)[C@@H]2CCCN2C(=O)[C@H](c2ccccc2)NC(=O)[C@H](Cc2ccc(O)cc2)NC(=O)[C@H](CCC(N)=O)NC(=O)[C@H](CCCNC(=N)N)NC1=O [UPAR-203, Pent-[Cys-Arg-Gln-Tyr-Phg-Pro-Hyp-Ile-Nva-Cys]-NH2] (Pentanoyl-CRQY[Phg]P[Hyp]I[Nva]C-NH2; disulfide 1-10)
5 | > 100 | ≥ 126 | – | – | – | CC[C@H](C)[C@@H]1NC(=O)[C@@H](C)NC(=O)[C@@H]2CCCN2C(=O)[C@H](Cc2ccccc2)NC(=O)[C@H](Cc2ccc(O)cc2)NC(=O)[C@H](CCC(N)=O)NC(=O)[C@H](CCCNC(N)=O)NC(=O)[C@@H](NC(C)=O)CSSC[C@@H](C(N)=O)NC(=O)[C@H](CC(C)C)NC1=O [UPAR-243, Ac-[Cys-Cit-Gln-Tyr-Phe-Pro-ala-Ile-Leu-Cys]-NH2] (Ac-C[Cit]QYFP[dA]ILC-NH2; disulfide 1-10)

Second part, the compound before the results:

Row | Compound | Kd [1] [nM] | IC50 [2] [nM] | pKD CAT [1] | pIC50 CAT [2] | Kd ([1]; single cycle kinetics) [nM]
6 | Pent-[Cys-Cit-Lys(LaDOTA)-Tyr-Phe-Pro-Aib-Ile-Nva-Cys]-NH2 (Pentanoyl-C[Cit]K(LaDOTA)YFP[Aib]I[Nva]C-NH2; disulfide 1-10; not fully specified; also: La(III) complexed by DOTA) [UPAR-279] | – | – | A (pKD values ≥ 8.8) | A (pIC50 values ≥8.0) | –
7 | CCCCC(=O)N[C@H]1CSSCCNC(=O)[C@H](CCC)NC(=O)[C@H]([C@@H](C)CC)NC(=O)[C@@H]2C[C@@H](O)CN2C(=O)[C@@H]2CCCN2C(=O)[C@H](Cc2ccccc2)NC(=O)[C@H](Cc2ccc(O)cc2)NC(=O)[C@H](CCC(N)=O)NC(=O)[C@H](CCCNC(=N)N)NC1=O [UPAR-481, Pent-[Cys-Arg-Gln-Tyr-Phe-Pro-Hyp-Ile-Nva-AET]] (Pentanoyl-CRQYFP[Hyp]I[Nva]-Cysteamide; disulfide 1-C) | – | ≤ 10 | – | – | < 1.58
8 | CCCCC(=O)N[C@H]1CSSC[C@@H](C(N)=O)NC(=O)[C@H](CCC)NC(=O)[C@H]([C@@H](C)CC)NC(=O)[C@@H]2C[C@@H](O)CN2C(=O)[C@@H]2CCCN2C(=O)[C@H](Cc2ccccc2)NC(=O)[C@H](Cc2ccc(O)cc2)NC(=O)[C@H](CCCCNC(=O)CN2CCN(CC(=O)O)CCN(CC(=O)O)CCN(CC(=O)O)CC2)NC(=O)[C@H](CCC(=O)O)NC1=O [UPAR-471, Pent-[Cys-Glu-Lys(DOTA)-Tyr-Phe-Pro-Hyp-Ile-Nva-Cys]-NH2] (Pentanoyl-CEK(DOTA)YFP[Hyp]I[Nva]C-NH2; disulfide 1-10) | – | ≤ 10 | – | – | < 1.58
9 | CCCCOC(=O)N[C@H]1CSSC[C@@H](C(N)=O)NC(=O)[C@H](CCC)NC(=O)[C@H]([C@@H](C)CC)NC(=O)[C@@H]2C[C@@H](O)CN2C(=O)[C@@H]2C[C@@H](O)CN2C(=O)[C@H](Cc2ccccc2)NC(=O)[C@H](Cc2ccc(O)cc2)NC(=O)[C@H](CCCCNC(=O)CN2CCN(CC(=O)O)CCN(CC(=O)O)CCN(CC(=O)O)CC2)NC(=O)[C@H]([C@@H](C)O)NC1=O [UPAR-128, Butoc-[Cys-Thr-Lys(DOTA)-Tyr-Phe-Hyp-Hyp-Ile-Nva-Cys]-NH2] (Butoxycarbonyl-CTK(DOTA)YF[Hyp][Hyp]I[Nva]C-NH2; disulfide 1-10) | < 1.58 | ≤ 10 | – | – | –
10 | CCCCOC(=O)N[C@H]1CSSC[C@@H](C(N)=O)NC(=O)[C@H](CCC)NC(=O)[C@H]([C@@H](C)CC)NC(=O)[C@@H]2C[C@@H](O)CN2C(=O)[C@@H]2C[C@H](F)CN2C(=O)[C@H](Cc2ccccc2)NC(=O)[C@H](Cc2ccc(O)c(O)c2)NC(=O)[C@H](CCNC(=O)CN2CCN(CC(=O)O)CCN(CC(=O)O)CCN(CC(=O)O)CC2)NC(=O)[C@H]([C@@H](C)O)NC1=O [UPAR-456, Butoc-[Cys-Thr-Dab(DOTA)-Dopa-Phe-4Cfp-Hyp-Ile-Nva-Cys]-NH2] (Butoxycarbonyl-CT[Dab](DOTA)[Dopa]F[Pro(cis-4-F)][Hyp]I[Nva]C-NH2; disulfide 1-10) | – | ≤ 10 | – | – | < 1.58
11 | CCCC[C@@H]1NC(=O)[C@H](CCCNC(=N)N)NC(=O)[C@@H](NC(=O)[C@H](CC(C)C)NC(=O)[C@H](CC(=O)O)NC(C)=O)CSSC[C@@H](C(N)=O)NC(=O)[C@H](CC(C)C)NC(=O)[C@H]([C@@H](C)CC)NC(=O)[C@H](C)NC(=O)[C@@H]2CCCN2C(=O)[C@H](Cc2ccccc2)NC(=O)[C@H](Cc2ccc(O)cc2)NC1=O [UPAR-270, Ac-Asp-Leu-[Cys-Arg-Nle-Tyr-Phe-Pro-Ala-Ile-Leu-Cys]-NH2] (Ac-DLCR[Nle]YFPAILC-NH2; disulfide 3-12) | < 1.58 | ≤ 10 | – | – | –
